Reference: US6013200A, “Low toxicity corrosion inhibitor” (Baker Hughes Incorporated, priority 1997, dated 2000)
In brackets after ≈: the same amount, converted by molar mass.

Tests used:
[1] = Biodegradability in sea water; conditions: after 28 days
Skeletonema costatum = assay: Aquatic toxicity testing; format: in vivo

With `NCCN1CCNC1=S` [1-(2-aminoethyl)-2-imidazolidinethione] the biodegradability [1] was 100% and the EC50 (Skeletonema costatum) was 236 µg/mL (≈ 1620 µM).
